Measured values published in US10676504B2 (Colorado State University Research Foundation, priority 2015, dated 2020).
Where two headings read alike, the source gives them in different places.

What was measured:
[1] = molecular target: T1, HDAC1 (Homo sapiens, UniProt Q13547); details: read-out: HDAC1 IC50; Table O1
[2] = molecular target: T2, HDAC2 (Homo sapiens, UniProt Q92769); assay: HDAC biochemical assay of O10-O12 (Table O1); parameters: The recombinant, full-length HDAC protein (BPS Biosciences) was incubated; purchased BPS Biosciences
[3] = molecular target: HDAC7 (Homo sapiens, UniProt Q8WUI4); details: read-out: HDAC7 IC50; Table O1
[4] = molecular target: T3, HDAC6 (Homo sapiens, UniProt Q9UBN7); details: read-out: HDAC6 IC50; Table O1; 200 μM TCEP
T3 sequence (Q9UBN7 1-1215): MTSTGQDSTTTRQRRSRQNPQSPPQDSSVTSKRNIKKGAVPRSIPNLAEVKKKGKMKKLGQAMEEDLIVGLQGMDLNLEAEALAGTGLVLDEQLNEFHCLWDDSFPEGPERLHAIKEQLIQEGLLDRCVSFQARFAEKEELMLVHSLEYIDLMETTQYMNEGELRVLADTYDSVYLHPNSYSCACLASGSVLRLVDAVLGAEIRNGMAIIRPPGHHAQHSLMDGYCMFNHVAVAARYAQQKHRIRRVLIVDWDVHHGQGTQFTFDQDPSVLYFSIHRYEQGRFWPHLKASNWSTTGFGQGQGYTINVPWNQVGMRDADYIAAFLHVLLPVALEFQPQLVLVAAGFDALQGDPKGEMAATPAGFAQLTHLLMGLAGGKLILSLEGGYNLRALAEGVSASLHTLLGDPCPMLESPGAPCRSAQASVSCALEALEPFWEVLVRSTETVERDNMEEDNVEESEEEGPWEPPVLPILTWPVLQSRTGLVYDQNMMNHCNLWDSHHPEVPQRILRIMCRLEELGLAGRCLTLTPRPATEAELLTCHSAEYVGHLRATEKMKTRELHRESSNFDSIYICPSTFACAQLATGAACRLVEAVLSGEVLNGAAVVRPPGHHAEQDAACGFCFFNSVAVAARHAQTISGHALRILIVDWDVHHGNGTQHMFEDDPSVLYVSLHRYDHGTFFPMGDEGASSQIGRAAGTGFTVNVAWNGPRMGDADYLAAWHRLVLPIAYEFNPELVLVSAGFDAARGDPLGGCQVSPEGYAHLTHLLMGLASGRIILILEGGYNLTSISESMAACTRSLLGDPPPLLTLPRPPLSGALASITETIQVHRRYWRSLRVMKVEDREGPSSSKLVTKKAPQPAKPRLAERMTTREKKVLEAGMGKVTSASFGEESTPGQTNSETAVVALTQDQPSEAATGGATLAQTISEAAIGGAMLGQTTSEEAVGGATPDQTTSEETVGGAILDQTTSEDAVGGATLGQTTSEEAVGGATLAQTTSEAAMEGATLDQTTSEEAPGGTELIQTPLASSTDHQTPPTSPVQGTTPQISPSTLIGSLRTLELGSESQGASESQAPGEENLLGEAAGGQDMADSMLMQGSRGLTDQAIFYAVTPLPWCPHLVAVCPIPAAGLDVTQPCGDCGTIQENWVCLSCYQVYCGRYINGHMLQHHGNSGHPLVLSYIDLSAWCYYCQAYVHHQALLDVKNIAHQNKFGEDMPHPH

[5] = molecular target: T4, HDAC8 (Homo sapiens, UniProt Q9BY41); details: read-out: HDAC8 IC50; Table O1
T4 sequence (Q9BY41 1-377): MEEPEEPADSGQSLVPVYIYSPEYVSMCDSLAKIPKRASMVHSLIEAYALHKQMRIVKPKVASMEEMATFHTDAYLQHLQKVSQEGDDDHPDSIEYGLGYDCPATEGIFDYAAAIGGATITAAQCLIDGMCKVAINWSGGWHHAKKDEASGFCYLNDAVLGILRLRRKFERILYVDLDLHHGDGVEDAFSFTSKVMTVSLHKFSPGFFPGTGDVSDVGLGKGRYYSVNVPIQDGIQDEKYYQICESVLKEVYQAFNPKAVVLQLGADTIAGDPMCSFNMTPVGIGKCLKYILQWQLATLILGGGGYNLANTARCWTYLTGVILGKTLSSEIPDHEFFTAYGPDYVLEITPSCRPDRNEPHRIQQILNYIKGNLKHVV

[6] = molecular target: T5, HDAC3 (Homo sapiens, UniProt O15379); assay: HDAC biochemical assay of O10-O12 (Table O1)
T5 construct: The recombinant, full-length HDAC protein (BPS Biosciences) was incubated; purchased BPS Biosciences

[7] = system: human HDACs; assay: HDAC biochemical assay (Example 16), summary statements over isoforms
Description: The inhibitory effect of compounds on deacetylase isoenzyme function was determined in vitro using an optimized homogenous assay performed in 384-well plate format. […] Data are analyzed on a plate-by-plate basis for the linear range of fluorescence over time. Data from the plate capture corresponding to the mid-linear range is imported into analytical software and annotated with well identity and compound concentration (Spotfire DecisionSite). Replicate experimental data from incubations with inhibitor are normalized to control, solvent-only wells and IC-50 is determined by logistic regression.
Thus, small-molecule inhibitors were arrayed at twelve-point dose-response (3-fold increments) in 384-well library plates and transferred by robotic pin device to replicate assay plates containing assay buffer under reducing conditions (TCEP 200 μM). A liquid handling device then transferred a tripeptide substrate terminating in acetyl-lysine and amide conjugated to 4-methyl-7-aminocoumarin (AMC), recombinant human histone deacetylase (BPS Bioscience, San Diego, Calif.), and recombinant human trypsin (Sigma-Aldrich, St. Louis, Mo.). […] Kinetic (fluorescence per unit time) and end-point (total fluorescence) data were captured by a multilabel plate reader. Replicate data were analyzed by curve-fit using logistic regression (Spotfire Decision-Site). […]

[8] = system: human malignant melanoma cell lines; assay: melanoma cell viability, ATP content (Cell TiterGlo); type: cell-based; details: range over panel of melanoma cell lines, FIG. 4, read-out: IC50 melanoma cell proliferation
[9] = system: melanoma cell lines; details: five-dose
Description: (§1) All compounds submitted for screening were initially tested at a single high dose (10^-5 M) against the fill NCI 60 cell panel. Only compounds which satisfied pre-determined threshold inhibition criteria in a minimum number of cell lines progressed to a second round of testing utilizing a more comprehensive 5-dose inhibition assay. The threshold inhibition criteria for progression to the 5-dose assays were selected to efficiently capture compounds with anti-proliferative activity based on historical DTP screening data.
(§2) Concentrations for G150, IC50, TGI, and LC50 were calculated for all cell lines tested, and heat plots were prepared.

[10] = molecular target: T4, HDAC8; assay: HDAC biochemical assay of P5-P12 (Table P1); parameters: The recombinant, full-length HDAC protein (BPS Biosciences) was incubated; purchased BPS Biosciences
[11] = system: renal cancer cell lines; details: five-dose
[12] = system: NCI-60 cancer cell lines; details: five-dose
[13] = molecular target: T2, HDAC2; assay: HDAC biochemical assay of P5-P12 (Table P1); parameters: The recombinant, full-length HDAC protein (BPS Biosciences) was incubated; purchased BPS Biosciences
[14] = system: melanoma cell lines; assay: cells; details: read-out: Average Concentration (M), LC50, Melanoma
Description: as §1, §2

[15] = system: NCI-60 cancer cell lines; assay: cells
[16] = molecular target: T1, HDAC1; details: read-out: HDAC inhibitory activity (Ki) HDAC1; Table 2
Description: (§3) To measure the inhibitory effect on deacetylase function in vitro, a continuous kinetic biochemical assay miniaturized to 384-well plate format was optimized.
(§4) Fluorescence measurements were obtained in real-time on a Varioskan microtiter plate reader (Thermo).

[17] = molecular target: T2, HDAC2; type: biochemical; parameters: The recombinant, full-length HDAC protein (BPS Biosciences) was incubated; purchased BPS Biosciences; details: read-out: HDAC inhibitory activity (Ki) HDAC2
Description: as §3, §4

[18] = system: HDACs 1-3; assay: HDAC biochemical assay of P5-P12, summary statements
[19] = molecular target: T1, HDAC1; assay: HDAC biochemical assay of P5-P12 (Table P1); parameters: The recombinant, full-length HDAC protein (BPS Biosciences) was incubated; purchased BPS Biosciences
[20] = molecular target: T2, HDAC2; assay: HDAC biochemical assay (Example 16); parameters: recombinant, full-length HDAC protein; purchased BPS Biosciences; details: Table 4; reducing conditions (TCEP 200 μM)
Description: (§5) Thus, small-molecule inhibitors were arrayed at twelve-point dose-response (3-fold increments) in 384-well library plates and transferred by robotic pin device to replicate assay plates containing assay buffer under reducing conditions (TCEP 200 μM). A liquid handling device then transferred a tripeptide substrate terminating in acetyl-lysine and amide conjugated to 4-methyl-7-aminocoumarin (AMC), recombinant human histone deacetylase (BPS Bioscience, San Diego, Calif.), and recombinant human trypsin (Sigma-Aldrich, St. Louis, Mo.). Following deacetylase hydrolysis of acetyl-lysine, trypsin cleavage liberated the AMC fluorophore. Kinetic (fluorescence per unit time) and end-point (total fluorescence) data were captured by a multilabel plate reader. Replicate data were analyzed by curve-fit using logistic regression (Spotfire Decision-Site).

[21] = molecular target: T1, HDAC1; assay: HDAC biochemical assay (Example 16); parameters: recombinant, full-length HDAC protein; purchased BPS Biosciences; details: Table 4; reducing conditions (TCEP 200 μM)
Description: as §5

[22] = molecular target: T6, HDAC3/NCor2 (Homo sapiens, UniProt O15379); assay: HDAC biochemical assay (Example 16)
T6 construct: recombinant, full-length HDAC protein; purchased BPS Biosciences
Description: as §5

[23] = molecular target: T3, HDAC6; assay: HDAC biochemical assay (Example 16); parameters: recombinant, full-length HDAC protein; purchased BPS Biosciences; details: Table 4; reducing conditions (TCEP 200 μM)
Description: as §5

[24] = molecular target: T2, HDAC2; assay: HDAC2 inhibition, trypsin-coupled kinetic fluorescence homogeneous assay (Example 10); type: biochemical; parameters: The recombinant, full-length HDAC protein (BPS Biosciences) was incubated; purchased BPS Biosciences; details: Conc (uM); logistic curve fit of activity versus concentration; some fits reached max iterations; read-out: X50
Description: as §3, §4
A biochemical study of HDAC2 inhibition was carried out using the trypsin-coupled, kinetic fluorescence homogeneous assay described above.

T2 sequence (Q92769 whole entry): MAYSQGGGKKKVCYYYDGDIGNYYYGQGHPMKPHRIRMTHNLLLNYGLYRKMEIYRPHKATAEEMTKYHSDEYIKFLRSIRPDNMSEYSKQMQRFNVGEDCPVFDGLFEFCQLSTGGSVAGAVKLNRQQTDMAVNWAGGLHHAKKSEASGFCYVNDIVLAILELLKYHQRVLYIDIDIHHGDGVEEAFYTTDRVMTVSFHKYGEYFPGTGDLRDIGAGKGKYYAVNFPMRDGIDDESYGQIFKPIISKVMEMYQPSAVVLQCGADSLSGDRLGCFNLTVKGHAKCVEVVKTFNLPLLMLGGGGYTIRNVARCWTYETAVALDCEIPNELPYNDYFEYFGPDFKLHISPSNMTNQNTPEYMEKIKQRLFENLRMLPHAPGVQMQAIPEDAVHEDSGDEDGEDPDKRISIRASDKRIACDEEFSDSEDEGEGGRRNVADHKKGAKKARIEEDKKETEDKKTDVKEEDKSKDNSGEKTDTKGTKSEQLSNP
T1 sequence (Q13547 whole entry): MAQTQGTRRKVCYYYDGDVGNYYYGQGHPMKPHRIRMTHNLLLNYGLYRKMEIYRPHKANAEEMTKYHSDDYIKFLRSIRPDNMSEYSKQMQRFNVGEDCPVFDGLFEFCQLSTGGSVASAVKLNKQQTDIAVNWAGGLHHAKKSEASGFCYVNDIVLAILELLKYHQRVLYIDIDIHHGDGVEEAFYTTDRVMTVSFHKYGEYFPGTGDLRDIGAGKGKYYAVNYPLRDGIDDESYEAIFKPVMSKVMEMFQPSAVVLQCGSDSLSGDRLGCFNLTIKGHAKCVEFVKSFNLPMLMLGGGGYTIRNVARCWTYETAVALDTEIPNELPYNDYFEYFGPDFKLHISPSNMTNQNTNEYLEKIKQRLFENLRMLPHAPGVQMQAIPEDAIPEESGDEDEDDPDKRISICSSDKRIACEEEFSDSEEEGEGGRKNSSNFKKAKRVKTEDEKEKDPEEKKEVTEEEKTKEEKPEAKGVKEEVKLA
T6 sequence (O15379 whole entry): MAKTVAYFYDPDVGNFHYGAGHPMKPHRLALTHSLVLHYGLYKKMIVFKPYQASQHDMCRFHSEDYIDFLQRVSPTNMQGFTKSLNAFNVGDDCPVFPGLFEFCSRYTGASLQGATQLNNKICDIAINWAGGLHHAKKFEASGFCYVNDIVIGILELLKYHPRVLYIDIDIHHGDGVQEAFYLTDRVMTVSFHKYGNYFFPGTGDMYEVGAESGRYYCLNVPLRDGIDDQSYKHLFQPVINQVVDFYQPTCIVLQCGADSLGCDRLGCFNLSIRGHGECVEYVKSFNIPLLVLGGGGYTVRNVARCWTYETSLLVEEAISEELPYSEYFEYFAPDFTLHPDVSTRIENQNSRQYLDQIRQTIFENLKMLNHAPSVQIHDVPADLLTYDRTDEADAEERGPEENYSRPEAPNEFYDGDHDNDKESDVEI
T6 sequence (Q9Y618 395-489 partner limits assumed): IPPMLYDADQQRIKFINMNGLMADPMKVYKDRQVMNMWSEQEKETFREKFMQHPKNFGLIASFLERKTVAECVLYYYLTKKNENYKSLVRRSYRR
T5 sequence (O15379 whole entry): as the sequence (O15379 whole entry) above
T5 sequence (Q9Y618 395-489 partner limits assumed): as the sequence (Q9Y618 395-489 partner limits assumed) above
HDAC7, sequence (Q8WUI4 518-952 limits assumed): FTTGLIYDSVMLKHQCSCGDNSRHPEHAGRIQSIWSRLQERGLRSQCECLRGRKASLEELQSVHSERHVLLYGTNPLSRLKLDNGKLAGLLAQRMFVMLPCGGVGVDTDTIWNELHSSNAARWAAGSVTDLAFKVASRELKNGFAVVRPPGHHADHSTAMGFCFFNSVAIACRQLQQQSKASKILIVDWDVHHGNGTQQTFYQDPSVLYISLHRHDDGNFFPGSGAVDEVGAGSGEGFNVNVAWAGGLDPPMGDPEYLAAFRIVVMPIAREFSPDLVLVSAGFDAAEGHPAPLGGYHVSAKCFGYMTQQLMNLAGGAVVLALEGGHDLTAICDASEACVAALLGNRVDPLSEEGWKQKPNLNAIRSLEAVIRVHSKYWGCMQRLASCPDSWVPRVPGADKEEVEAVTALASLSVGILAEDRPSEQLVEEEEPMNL

`CC(C)[C@@H]1NC(=O)[C@]2(C)CSC(=N2)c2coc(n2)CNC(=O)C[C@@H](/C=C/CCS)OC1=O` [Compound O11, Thiazoline-Oxazole Thiol Analog] showed an IC50 [1] of 4.4 nM, an IC50 [2] of 20 nM and an IC50 [3] of 960 nM. It also gave an IC50 [4] of 98 nM, an IC50 [5] of 1200 nM and an IC50 [6] of 7.2 nM.
`CCCCCCCC(=O)SCCC=CC1CC(=O)NCc2nc(co2)C2=NC(C)(CS2)C(=O)NC(C(C)C)C(=O)O1` (stereo not shown) [Compound O12, Thiazoline-Oxazole Thioester Analog] was tested, and the IC50 [1] was 950 nM, the IC50 [2] was 2100 nM and the IC50 [4] was 1100 nM. For the same compound, the IC50 [6] was 1900 nM.
With `CC(C)[C@H]1NC(=O)[C@@]2(C)CSC(=N2)c2csc(n2)CNC(=O)C[C@H](/C=C/CCS)OC1=O` [Enantiomer (2), (−)-Largazole Thiol] the “decrease in potency versus the natural product” value ([7]; all isoforms tested) was “three orders of magnitude”.
For `CCCCCCCC(=O)SCC/C=C/[C@@H]1CC(=O)NCc2nc(cs2)C2=N[C@@](C)(CS2)C(=O)N[C@@H](C(C)C)C(=O)O1` [Largazole, largazole, reference compound], the IC50 [8] was 45 to 315 nM, the IC50 [1] was 230 nM and the “Percent of Cell Lines Impacted (%), LC50, Melanoma” value [9] was 33%. The IC50 [10] was 1070 nM, the “Percent of Cell Lines Impacted (%), LC50, Renal” value [11] was 14% and the IC50 [2] was 900 nM. For the same compound, the “Percent of Cell Lines Impacted (%), GI50” value ([12]; 50% Growth Inhibition) was 100%, the “Percent of Cell Lines Impacted (%), LC50” value ([12]; 50% Lethal Concentration reached) was 7% and the “Percent of Cell Lines Impacted (%), TGI” value ([12]; Total Growth Inhibition) was 58%. The “Total Impacted Cell Lines (n), TGI” value ([12]; Total Growth Inhibition) was 34, the IC50 [13] was 18.6 nM and the CC50 [14] was 3.55e-06 M. The GI50 ([15]; read-out: Average Concentration (M), GI50) was 2.1e-06 M, the GI50 ([15]; read-out: GI50 concentrations (M), order of magnitude) was 1e-06 M and the Ki [16] was 20 nM. The Ki [17] was 21 nM, the “IC50 range in words for HDACs 1-3” value [18] was “high nM-μM range” and the IC50 [19] was 10.1 nM.
Work on `CC(C)C1NC(=O)C2(C)COC(=N2)c2coc(n2)CNC(=O)CC(C=CCCSSCCC=CC2CC(=O)NCc3nc(co3)C3=NC(C)(CO3)C(=O)NC(C(C)C)C(=O)O2)OC1=O` (stereo not shown) [Oxazoline-oxazole (39b), Disulfide Dimer 39b] yielded an IC50 [20] of 1.7 nM, an IC50 [21] of 0.69 nM and an IC50 [22] of 1.5 nM.
With `C[C@@]12CSC(=N1)c1csc(n1)CNC(=O)C[C@@H](/C=C/CCS)OC(=O)[C@@H]1CCCN1C2=O` [Proline substitution (4)] the IC50 [20] was 800 nM, the IC50 [23] was 13000 nM and the IC50 [21] was 110 nM. The IC50 ([22]; Table 4, reducing conditions (TCEP 200 μM)) was 580 nM and the IC50 [24] was 0.773 µM.
For `CC(C)[C@@H]1NC(=O)[C@]2(C)CSC(=N2)c2cccc(n2)CNC(=O)C[C@@H](/C=C/CCS)OC1=O` [Thiazole-pyridine substitution (29b)], the IC50 [23] was 29 nM, the IC50 [22] was 1.1 nM and the “activity against Class I HDACs” value [7] was “sub-nanomolar”.
